# Experimental data reported in patent US20030130336A1, “Method of determining the activity of a central nervous system drug on striatal dopamine transporter populations” (Pfizer Inc., priority 2002, published 2003).
# Structures can show the parent of a compound that is named as a salt.
# Target: T1, dopamine transporters (DAT) in the striatal nuclei (Homo sapiens, UniProt Q01959)
# T1 construct: from tissue; host or cells: striatum (caudate and putamen) of living volunteers, imaged in vivo by SPECT
# Experiment: [123I]β-CIT SPECT imaging of striatal DAT binding (V3″ ratio)
# Type: in vivo
# T1 sequence (Q01959 whole entry): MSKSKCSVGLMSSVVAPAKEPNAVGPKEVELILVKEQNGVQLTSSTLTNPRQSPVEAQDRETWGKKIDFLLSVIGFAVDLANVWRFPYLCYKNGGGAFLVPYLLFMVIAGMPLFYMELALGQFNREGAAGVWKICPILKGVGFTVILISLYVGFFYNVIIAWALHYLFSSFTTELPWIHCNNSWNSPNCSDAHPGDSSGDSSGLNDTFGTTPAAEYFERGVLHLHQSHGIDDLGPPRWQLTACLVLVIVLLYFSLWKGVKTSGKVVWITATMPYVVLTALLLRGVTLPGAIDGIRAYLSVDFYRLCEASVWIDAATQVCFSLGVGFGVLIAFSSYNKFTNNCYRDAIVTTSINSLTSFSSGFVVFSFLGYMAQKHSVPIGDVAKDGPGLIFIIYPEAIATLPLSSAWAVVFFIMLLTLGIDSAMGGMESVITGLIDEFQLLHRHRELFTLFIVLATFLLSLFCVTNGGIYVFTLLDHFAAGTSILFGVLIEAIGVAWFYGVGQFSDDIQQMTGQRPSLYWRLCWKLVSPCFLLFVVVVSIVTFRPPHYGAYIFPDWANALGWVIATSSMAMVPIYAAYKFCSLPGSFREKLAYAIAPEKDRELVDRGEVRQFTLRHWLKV
smiles,measurement,setting,value
CC(NC(C)(C)C)C(=O)c1cccc(Cl)c1 (stereo not drawn) [bupropion hydrochloride],"St-V3″ (Mean ± SD), Scan 2","striatum, specific to non-specific [123I]β-CIT binding, Day 8, Group 1 bupropion HCl SR 100 mg po qAM, Group 2 citalopram 20 mg po BID, days 1-8, healthy volunteers",7.42 ± 1.13
same,"St-V3″ (Mean ± SD), Scan 3","striatum, Day 16, Group 1 bupropion HCl SR 100 mg po BID days 9-16, Group 2 citalopram 20 mg po BID plus bupropion HCl SR 100 mg qAM days 9-16",7.37 ± 1.69
same,change in striatal DAT binding,"versus baseline Scan 1, RMANOVA, paired t-test with Bonferroni correction",did not lead to any significant changes
